Assay results: PubChem BioAssay AID330 (DTP/NCI, 2004)
“And” between values parts separate entries of the source, which are not always exact repeats. Identical values can stand only once. Toxic doses and inconclusive results are not listed.

Tested on: P388 leukemia ip, CD2F1 mice, survival T/C
Experiment: NCI In Vivo Anticancer Drug Screen. Data for tumor model P388 Leukemia (intraperitoneal) in CD2F1 (CDF1) mice
Details: endpoint: median survival time, higher = longer survival
Summary of the method: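 Mice carrying the transplanted tumor received test compound or vehicle. Survival was recorded in each group, and the value is the treated-group measurement divided by that of the vehicle-treated control group.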

[1] = dose: 50.0 mg/kg/injection, schedule: Q01DX009 (ip), vehicle: Klucel (hydroxypropylcellulose) (HPC)
[2] = dose: 50.0 mg/kg/injection, schedule: Q01DX009 (ip), vehicle: saline with Tween-80
[3] = dose: 100.0 mg/kg/injection, schedule: Q01DX009 (ip), vehicle: Klucel (hydroxypropylcellulose) (HPC)
[4] = dose: 100.0 mg/kg/injection, schedule: Q01DX009 (ip), vehicle: saline with Tween-80
[5] = dose: 200.0 mg/kg/injection, schedule: Q01DX009 (ip), vehicle: Klucel (hydroxypropylcellulose) (HPC)
[6] = dose: 200.0 mg/kg/injection, schedule: Q01DX009 (ip), vehicle: saline with Tween-80
[7] = dose: 50.0 mg/kg/injection, schedule: Q01DX009 (ip), vehicle: saline
[8] = dose: 100.0 mg/kg/injection, schedule: Q01DX009 (ip), vehicle: saline
[9] = dose: 100.0 mg/kg/injection, schedule: Q04DX002 (ip), vehicle: saline with Tween-80
[10] = dose: 200.0 mg/kg/injection, schedule: Q04DX002 (ip), vehicle: saline with Tween-80
[11] = dose: 400.0 mg/kg/injection, schedule: Q04DX002 (ip), vehicle: saline with Tween-80
[12] = dose: 60.0 mg/kg/injection, schedule: Q01DX005 (ip), vehicle: saline with Tween-80
[13] = dose: 120.0 mg/kg/injection, schedule: Q01DX005 (ip), vehicle: saline with Tween-80
[14] = dose: 50.0 mg/kg/injection, schedule: Q01DX005 (ip), vehicle: Klucel (hydroxypropylcellulose) (HPC)
[15] = dose: 100.0 mg/kg/injection, schedule: Q01DX005 (ip), vehicle: Klucel (hydroxypropylcellulose) (HPC)
[16] = dose: 200.0 mg/kg/injection, schedule: Q01DX005 (ip), vehicle: Klucel (hydroxypropylcellulose) (HPC)

## C[C@@]12C(=O)OC(=O)[C@]1(C)[C@H]1CC[C@@H]2O1
dose: 0.5 mg/kg/injection, schedule: Q01DX005 (ip), vehicle: acetone
  T/C: 105 % of control
dose: 62.5 micrograms/kg/injection, schedule: Q01DX005 (ip), vehicle: acetone
  T/C: 102 % of control
dose: 125.0 micrograms/kg/injection, schedule: Q01DX005 (ip), vehicle: acetone
  T/C: 107 % of control
dose: 250.0 micrograms/kg/injection, schedule: Q01DX005 (ip), vehicle: acetone
  T/C: 102 % of control
dose: 500.0 micrograms/kg/injection, schedule: Q01DX005 (ip), vehicle: acetone
  T/C: 102 % of control

## CC(=NCc1ccccc1)c1ccccc1O
[1]
  T/C: 99 % of control
[2]
  T/C: 106 % of control
[3]
  T/C: 93 % of control
[4]
  T/C: 116 % of control
[5]
  T/C: 92 % of control
[6]
  T/C: 98 % of control
dose: 400.0 mg/kg/injection, schedule: Q01DX009 (ip), vehicle: saline with Tween-80
  T/C: 109 % of control

## OCCC[N+]12CCCN1CCC2
[7]
  T/C: 98 % of control
[8]
  T/C: 104 % of control

## CNc1cc(Cl)c(Cl)cc1[N+](=O)[O-]
dose: 37.5 mg/kg/injection, schedule: Q04DX003 (ip), vehicle: saline sonified
  T/C: 95 % of control
dose: 75.0 mg/kg/injection, schedule: Q04DX003 (ip), vehicle: saline sonified
  T/C: 95 % of control
dose: 150.0 mg/kg/injection, schedule: Q04DX003 (ip), vehicle: saline sonified
  T/C: 95 % of control

## CNC(=O)OCc1c(COC(=O)NC)c2n(c1C)-c1ccccc1CCC2
dose: 2.5 mg/kg/injection, schedule: Q01DX005 (ip), vehicle: Klucel (hydroxypropylcellulose) (HPC)
  T/C: 154 % of control
dose: 10.0 mg/kg/injection, schedule: Q01DX005 (ip), vehicle: Klucel (hydroxypropylcellulose) (HPC)
  T/C: 152 % of control

## CC1(C)CN(C(C)(C)C)COC1OC1OCN(C(C)(C)C)CC1(C)C (centres undefined)
dose: 37.5 mg/kg/injection, schedule: Q01DX009 (ip), vehicle: saline with Tween-80
  T/C: 118 % of control
dose: 75.0 mg/kg/injection, schedule: Q01DX009 (ip), vehicle: saline with Tween-80
  T/C: 109 % of control
dose: 150.0 mg/kg/injection, schedule: Q01DX009 (ip), vehicle: saline with Tween-80
  T/C: 119 % of control

## CN(C)C(=Nc1ccccc1)OC1=C/C(=C2/C=C(OC(=Nc3ccccc3)N(C)C)N=C2OC(=Nc2ccccc2)N(C)C)C(OC(=Nc2ccccc2)N(C)C)=N1
dose: 100.0 mg/kg/injection, schedule: Q01DX001 (ip), vehicle: Klucel (hydroxypropylcellulose) (HPC)
  T/C: 106 % of control
dose: 200.0 mg/kg/injection, schedule: Q01DX001 (ip), vehicle: Klucel (hydroxypropylcellulose) (HPC)
  T/C: 106 % of control
dose: 400.0 mg/kg/injection, schedule: Q01DX001 (ip), vehicle: Klucel (hydroxypropylcellulose) (HPC)
  T/C: 104 % of control

## O=C1N(c2ccccc2)C(=O)C2(N(c3ccccc3)CCN2c2ccccc2)N1c1ccccc1
[9]
  T/C: 88 % of control
[10]
  T/C: 89 % of control
[11]
  T/C: 88 % of control

## O=C(O)C1CCCCC1c1c2ccc(=O)c(O)c-2oc2c(O)c(O)ccc12 (centres undefined)
dose: 15.0 mg/kg/injection, schedule: Q01DX005 (ip), vehicle: saline with Tween-80
  T/C: 102 % of control
dose: 30.0 mg/kg/injection, schedule: Q01DX005 (ip), vehicle: saline with Tween-80
  T/C: 102 % of control and 105 % of control
[12]
  T/C: 110 % of control and 111 % of control and 119 % of control
[13]
  T/C: 107 % of control and 111 % of control and 112 % of control
dose: 240.0 mg/kg/injection, schedule: Q01DX005 (ip), vehicle: saline with Tween-80
  T/C: 121 % of control

## O=C(Nc1ccccc1)P(=S)(c1ccccc1)c1ccccc1
[14]
  T/C: 101 % of control and 112 % of control
[15]
  T/C: 104 % of control
[16]
  T/C: 101 % of control and 106 % of control

## CCOC(=O)C1=NN2C(O)C3(C)CC(C(=O)OCC)=NN3C(O)C2(C)C1 (centres undefined)
[7]
  T/C: 105 % of control
[8]
  T/C: 107 % of control
dose: 200.0 mg/kg/injection, schedule: Q01DX009 (ip), vehicle: saline
  T/C: 99 % of control

## C1=NC2=C(CCc3ccccc32)C2=NCCN12
dose: 10.0 mg/kg/injection, schedule: Q04DX002 (ip), vehicle: saline with Tween-80
  T/C: 100 % of control
dose: 20.0 mg/kg/injection, schedule: Q04DX002 (ip), vehicle: saline with Tween-80
  T/C: 96 % of control
dose: 40.0 mg/kg/injection, schedule: Q04DX002 (ip), vehicle: saline with Tween-80
  T/C: 100 % of control

## CCCN1CCc2c([nH]c3cc(OC)ccc23)C1C (centres undefined)
dose: 50.0 mg/kg/injection, schedule: Q01DX005 (ip), vehicle: saline with Tween-80
  T/C: 100 % of control
dose: 100.0 mg/kg/injection, schedule: Q01DX005 (ip), vehicle: saline with Tween-80
  T/C: 108 % of control

## COC(=O)C(CCCN=C(N)N[N+](=O)[O-])NC(=O)c1ccc2c(c1O)C(=O)c1ccccc1C2=O (centres undefined)
[9]
  T/C: 96 % of control
[10]
  T/C: 92 % of control
[11]
  T/C: 92 % of control

## CCOC(=O)C(C(=O)OCC)=S1c2ccccc2Sc2ccccc21
dose: 60.0 mg/kg/injection, schedule: Q01DX005 (ip), vehicle: Klucel (hydroxypropylcellulose) (HPC)
  T/C: 90 % of control
dose: 120.0 mg/kg/injection, schedule: Q01DX005 (ip), vehicle: Klucel (hydroxypropylcellulose) (HPC)
  T/C: 89 % of control

## CCOC(=O)C1(O)CC(O)C(O)C(O)C1OC (centres undefined)
dose: 100.0 mg/kg/injection, schedule: Q01DX001 (ip), vehicle: saline with Tween-80
  T/C: 94 % of control
dose: 200.0 mg/kg/injection, schedule: Q01DX001 (ip), vehicle: saline with Tween-80
  T/C: 92 % of control
dose: 400.0 mg/kg/injection, schedule: Q01DX001 (ip), vehicle: saline with Tween-80
  T/C: 94 % of control

## CCOC(=O)C1C(O)CC2c3ccccc3-c3ccccc3C21 (centres undefined)
[12]
  T/C: 87 % of control
[13]
  T/C: 87 % of control

## CC=C/C=C/[C@@H]1O[C@](O)([C@H](CC)C(=O)NC/C=C/C=C(\C)[C@@H](OC)[C@@H](C)[C@@H]2O[C@H](/C=C/C=C/C=C(\C)C(=O)c3c(O)cc[nH]c3=O)[C@H](O)[C@@H]2O)[C@H](O)[C@H](O)C1(C)C
dose: 4.5 mg/kg/injection, schedule: Q01DX009 (ip), vehicle: Klucel (hydroxypropylcellulose) (HPC)
  T/C: 108 % of control
dose: 9.0 mg/kg/injection, schedule: Q01DX009 (ip), vehicle: Klucel (hydroxypropylcellulose) (HPC)
  T/C: 108 % of control
dose: 18.0 mg/kg/injection, schedule: Q01DX009 (ip), vehicle: Klucel (hydroxypropylcellulose) (HPC)
  T/C: 104 % of control
dose: 36.0 mg/kg/injection, schedule: Q01DX009 (ip), vehicle: Klucel (hydroxypropylcellulose) (HPC)
  T/C: 103 % of control
[1]
  T/C: 98 % of control
[3]
  T/C: 99 % of control
[5]
  T/C: 99 % of control
dose: 400.0 mg/kg/injection, schedule: Q01DX009 (ip), vehicle: Klucel (hydroxypropylcellulose) (HPC)
  T/C: 102 % of control

## CC(=O)N/N=C1\CCC2CCC1C2 (centres undefined)
[14]
  T/C: 100 % of control
[15]
  T/C: 99 % of control
[16]
  T/C: 96 % of control

## CCCCCCCCCCCC#CC(=O)O
[2]
  T/C: 110 % of control
[4]
  T/C: 102 % of control
[6]
  T/C: 105 % of control

## CCC1C[N+]2=C(c3cc(OC)c(OC)cc3CC2)c2c1cc1n2CCc2cc(OC)c(OC)cc2-1 (centres undefined)
dose: 0.75 mg/kg/injection, schedule: Q01DX005 (ip), vehicle: saline with Tween-80
  T/C: 101 % of control
dose: 1.5 mg/kg/injection, schedule: Q01DX005 (ip), vehicle: saline with Tween-80
  T/C: 109 % of control
dose: 3.0 mg/kg/injection, schedule: Q01DX005 (ip), vehicle: saline with Tween-80
  T/C: 117 % of control
dose: 3.12 mg/kg/injection, schedule: Q01DX005 (ip), vehicle: saline with Tween-80
  T/C: 111 % of control
dose: 6.25 mg/kg/injection, schedule: Q01DX005 (ip), vehicle: saline with Tween-80
  T/C: 109 % of control
dose: 12.5 mg/kg/injection, schedule: Q01DX005 (ip), vehicle: saline with Tween-80
  T/C: 114 % of control

## COc1cc(C2OC(=O)c3ccccc3S2)ccc1O (centres undefined)
dose: 6.25 mg/kg/injection, schedule: Q01DX009 (ip), vehicle: Klucel (hydroxypropylcellulose) (HPC)
  T/C: 114 % of control
dose: 12.5 mg/kg/injection, schedule: Q01DX009 (ip), vehicle: Klucel (hydroxypropylcellulose) (HPC)
  T/C: 110 % of control and 119 % of control
dose: 25.0 mg/kg/injection, schedule: Q01DX009 (ip), vehicle: Klucel (hydroxypropylcellulose) (HPC)
  T/C: 114 % of control and 120 % of control
[1]
  T/C: 106 % of control
[3]
  T/C: 118 % of control
